According to patent US20080039531A1, “Compositions, and kits comprising targeted aldehyde or acetal protease inhibitor compounds for treating muscle disorders” (priority 2005, published 2008):
Where “and” joins values, the source holds several entries; their conditions need not be identical. Equal entries are not always repeated. Where two headings read alike, the source gives them in different places.

Tests used:
calpain [1] = test: Calpain activities of muscle samples from leupeptin-treated MDX mice; type: in vivo, mouse; conditions: for Calpain activities of muscle samples, Anterior tibialis / Calpain activities of muscle samples, Diaphragm / Calpain activities of muscle samples, Gastrocnemius / Calpain activities of muscle samples, Soleus: mdx mice, average of 3 determinations
Experimental: It is well documented that as, observed in DMD and BMD, dystrophin is dysfunctional/absent in the murine MDX model of muscular dystrophy. […] A series of studies to test the ability of the calpain inhibitor, leupeptin, to delay and/or prevent features of calcium-induced damage to dystrophic myofibers was initiated. Control C57BL/10SNJ mice were treated with intramuscular injections of normal saline. The MDX mice were treated intramuscularly with either normal saline or 12 mg/kg leupeptin or 18 mg/kg leupeptin twice daily. All injections were delivered in the hind-limbs in various locations to avoid muscle damage due to repeated injections at the same location. The gastrocnemius, soleus, anterior tibialis, and diaphragm muscles were examined in all animals.
To further examine whether the beneficial/protective action of leupeptin was associated with a change in calpain activity, the activity of the enzyme was assessed in the muscle various muscles taken from the control, and MDX […]±treatment with leupeptin.

[2] = system: opponens and abductor myofibers; test: Monkey study, intramuscular leupeptin: muscle morphology after delayed median nerve repair; type: in vivo, Cebus apella
Description: (§1) In order to test the hypothesis that in vivo inhibition of calpains by leupeptin can facilitate neuromuscular recovery by inhibiting denervation atrophy of the skeletal-muscle target after complete peripheral nerve transection and delayed nerve repair (7), a monkey study (Cebus apella) was undertaken. This median-nerve model was chosen to approximate human anatomic and regenerative aspects.

Calpain [3] = test: Monkey study, intramuscular leupeptin: muscle calpain activities; type: in vivo, Cebus apella; conditions: right, nerve-repaired opponens and abductor muscles, 12 and 24 weeks
Description: as §1

[4] = system: opponens pollicis and abductor pollicis myofibers; test: Monkey study, oral leupeptin: myofiber diameter after median nerve repair; type: in vivo, monkeys; conditions: for percentage atrophy: loss of myofiber diameter vs left, unoperated control group: 3 months post nerve repair
Experimental: Subsequent to the above studies another series of experiments were performed on the monkeys to assess another route of leupeptin administration in these animals (8). In this regard, oral delivery of leupeptin, after median nerve transection and epineural nerve repair, was studied for its potential benefits to neuromuscular recovery. […] When plasma leupeptin concentrations were 3 mg or greater, morphologic and functional motor recovery were facilitated after nerve repair.
When expressed as a percentage atrophy, in comparison to the left, unoperated control group, the right control group lost 63 percent of its myofiber diameter; the 3-mg group lost 53% of its myofiber diameter; the 6-mg group 23%; the 12-mg group 11%; and the 18-mg group only 8%.

Calpain [5] = test: Monkey study, oral leupeptin: muscle calpain activities; type: in vivo, monkeys
Description: However, the trend in activities, as was expected, when comparing control, left muscle to right, denervated, leupeptin-treated muscle, was an overall decrease in calpain activity after leupeptin treatment. The mean decrease in calpain activity in the right opponens pollicis muscles of leupeptin treated animals was 30%. The mean decrease in calpain activity in the right abductor pollicis muscles of leupeptin-treated animals was 24%.

Duchenne patients = test: Preliminary safety trial of oral leupeptin in DMD children; type: in vivo
Experimental: Leupeptin's low toxicity, non-immunogenicity and stability profile have made it a potential drug for eventual human use. In this regard, a preliminary safety trial of leupeptin in seven Italian DMD children with ages varying from 7-10 was performed. The trial was approved by the Italian Ministry of Health and the leupeptin supplied by the Nippon Kayaku Co., Japan. […] During the process of muscle degeneration, muscle cells break open and their contents find their way into the bloodstream. […] CK levels can be slightly elevated (500 U/L) in some nerve disorders, or grossly elevated (5,000 to 15,000 U/L) in DMD or inflammatory myopathies. Importantly the significant decline in CK levels after treatment with leupeptin indicates a significant improvement (lessening of muscle breakdown) in these individuals, especially in the child given 100 mg twice daily.

calpain [6] = conditions: rats, IP, muscle isolated after 2 hours
Experimental: An initial series of toxicology experiments was performed in rats to assess the effect of CLA at various doses, on animal viability. […] A series of experiments to examine the ability of CLA vs. leupeptin to decrease activated calpain levels and inhibit muscle wasting was conducted. In the experiment shown in Table 4, rats were utilized to assess the effect of IP injection of either leupeptin or CLA into the hind limb muscle on their ability to inhibit calpain activity. To this end, four rats were injected IP with either leupeptin or CLA. After 2 hours, the muscle was isolated, homogenized, and assayed for remaining calpain activity by the standard assay.

[7] = system: rat hind limb muscle (sciatic nerve denervation); conditions: for % loss (muscle atrophy due to denervation): rat
Experimental: Denervation was carried out on one of the hind limb sciatic nerves of the rat. Denervation was allowed to proceed for 7 days. Either leupeptin or CLA was injected 2×/day in forelimb muscle for seven days. The non-denervated hind limb was used as the control. Leupeptin and/or CLA were injected into alternating forelimb muscles for a period of seven days after which, animals were sacrificed, muscles excised and weighed.

[8] = left, unoperated hand of leupeptin treated monkeys, 24 weeks

SMILES: CC(=O)N[C@@H](CC(C)C)C(=O)N[C@@H](CC(C)C)C(=O)N[C@H](C=O)CCCNC(=N)N [Leupeptin]
- decrease in calpain activity vs untreated MDX muscles (calpain [1]; anterior tibialis, 12 mg/kg): 50%
- decrease in calpain activity vs untreated MDX muscles (calpain [1]; anterior tibialis, 18 mg/kg): 77%
- decrease in calpain activity vs untreated MDX muscles (calpain [1]; diaphragm, 12 mg/kg): 51%
- decrease in calpain activity vs untreated MDX muscles (calpain [1]; diaphragm, 18 mg/kg): 71%
- decrease in calpain activity vs untreated MDX muscles (calpain [1]; gastrocnemius, 12 mg/kg): 84%
- decrease in calpain activity vs untreated MDX muscles (calpain [1]; gastrocnemius, 18 mg/kg): 60%
- Calpain activities of muscle samples, Anterior tibialis (calpain [1]; 12 mg/kg leupeptin): 155 ± 16 cpm/200-μg protein
- Calpain activities of muscle samples, Diaphragm (calpain [1]; 12 mg/kg leupeptin): 26 ± 4 cpm/200-μg protein
- Calpain activities of muscle samples, Gastrocnemius (calpain [1]; 12 mg/kg leupeptin): 27 ± 7 cpm/200-μg protein
- Calpain activities of muscle samples, Soleus (calpain [1]; 12 mg/kg leupeptin): 187 ± 16 cpm/200-μg protein
- Calpain activities of muscle samples, Anterior tibialis (calpain [1]; 18 mg/kg leupeptin): 71 ± 11 cpm/200-μg protein
- Calpain activities of muscle samples, Diaphragm (calpain [1]; 18 mg/kg leupeptin): 17 ± 5 cpm/200-μg protein
- Calpain activities of muscle samples, Gastrocnemius (calpain [1]; 18 mg/kg leupeptin): 67 ± 8 cpm/200-μg protein
- Calpain activities of muscle samples, Soleus (calpain [1]; 18 mg/kg leupeptin): 102 ± 9 cpm/200-μg protein
- decrease in calpain activity vs untreated MDX muscles (calpain [1]; soleus, 12 mg/kg): 44%
- decrease in calpain activity vs untreated MDX muscles (calpain [1]; soleus, 18 mg/kg): 70%
- mean myofiber diameter, abductor [2, 8]: 40.43±2.23 μm
- mean myofiber diameter, opponens [2, 8]: 43.25±4.26 μm
- myofiber diameter vs control animals ([2]; right, nerve-repaired hand, opponens and abductor, 12 and 24 weeks (FIG. 3)): statistically significant increase
- mean increase of calpain activities in control animals compared to leupeptin treated animals (Calpain [3]): 50%
- mean myofiber diameter vs left control group ([4]; left abductor pollicis, 6 months, 6-mg, 12-mg, 18-mg groups, p<0.01 (FIG. 5)): small but significant increase
- mean myofiber diameter vs right control group ([4]; right abductor pollicis, 6 months after nerve repair, 6-mg, 12-mg, 18-mg groups, p<0.01 (FIG. 5)): significant increase
- percent atrophy: loss of myofiber diameter vs left, unoperated abductor pollicis ([4]; right abductor pollicis, 6 months after nerve repair, oral leupeptin 3-mg group): 30%
- percent atrophy: loss of myofiber diameter vs left, unoperated abductor pollicis ([4]; right abductor pollicis, 6 months after nerve repair, oral leupeptin 6-mg group): 5%
- increase in myofiber diameter (no atrophy) vs left, unoperated abductor pollicis ([4]; right abductor pollicis, 6 months after nerve repair, oral leupeptin 12-mg group): 1.2%
- increase in myofiber diameter (no atrophy) vs left, unoperated abductor pollicis ([4]; right abductor pollicis, 6 months after nerve repair, oral leupeptin 18-mg group): 1.3%
- mean myofiber diameter vs right control group ([4]; right opponens pollicis, 3 months after nerve repair, all leupeptin treatment groups, p<0.01 (FIG. 4)): significant increase
- percentage atrophy: loss of myofiber diameter vs left, unoperated control group ([4]; right opponens pollicis, oral leupeptin 3-mg group): 53%
- percentage atrophy: loss of myofiber diameter vs left, unoperated control group ([4]; right opponens pollicis, oral leupeptin 6-mg group): 23%
- percentage atrophy: loss of myofiber diameter vs left, unoperated control group ([4]; right opponens pollicis, oral leupeptin 12-mg group): 11%
- percentage atrophy: loss of myofiber diameter vs left, unoperated control group ([4]; right opponens pollicis, oral leupeptin 18-mg group): 8%
- mean decrease in calpain activity (Calpain [5]; right abductor pollicis muscles of oral leupeptin-treated monkeys): 24%
- mean decrease in calpain activity (Calpain [5]; right opponens pollicis muscles of oral leupeptin treated monkeys): 30%
- muscle function tests vs start of trial (Duchenne patients; DMD children, at 6 months and one year): little decline in muscle strength
- blood chemistries over the year (Duchenne patients; DMD children, oral leupeptin for one year): no abnormalities
- CREATINE KINASE After 1 yr. (Duchenne patients; Duchenne patient, oral leupeptin 100 mg twice daily): 375 Units/100 ml
- CREATINE KINASE After 1 yr. (Duchenne patients; Duchenne patients (one line per patient), oral leupeptin 50 mg twice daily): 2,500 Units/100 ml (2×) and 4,100 Units/100 ml and 2,700 Units/100 ml and 3,300 Units/100 ml and 3,500 Units/100 ml
- tolerability / adverse effects (Duchenne patients; in vivo, po): well tolerated
- % inhibition of muscle calpain activity (calpain [6]; 75 μmoles): 20%
- % inhibition/μmole (calpain [6]): 0.26%
- Fold (effectiveness per μmole relative to leupeptin) (calpain [6]): 1
- % loss (muscle atrophy due to denervation) ([7]; 1.5 mg/kg injected 2x/day for seven days): 30.9 ± 4%
- % loss (muscle atrophy due to denervation) ([7]; 15.0 mg/kg injected 2x/day for seven days): 2.6 ± 0.3%
- health / toxic effect in denervation study ([7]; rats, seven days of injections): remained healthy without any apparent negative toxic effect
